Laboratory results as given in US20240279233A1, “MACROCYCLIC TAK1 INHIBITORS” (Aqilion AB, priority 2021, published 2024).
≈ marks a conversion by molar mass, not a printed value. Where “and” joins values, the source holds several entries; their conditions need not be identical. Identical values can stand only once. Like-named read-outs stand apart in the source and are kept apart here.

How the values were obtained:
[1] = Solubility assay in phosphate buffer; conditions: phosphate buffer 100 mM, pH 7.4, room temperature, 20-24 h, LC-UV
Protocol: The aqueous solubility of selected example compounds was determined as follows; 6 μL of DMSO stock solution of the selected example was added to 594 μL phosphate buffer (100 mM, pH 7.4). The resulting mixture was equilibrated over night (20-24 h, Alligator Shaker, room temperature). The mixture was then filtered (Millex LH 0.45 μm) and the concentration/solubility was determined by LC-UV quantification.

[2] = target: human recombinant TAK1-TAB1 Kinase (TAK1 (1-303) and TAB1 (437-end)) (Homo sapiens (Human), UniProt O43318); assay: TAK1 biochemical ADP-Glo kinase assay; conditions: MBP substrate
How it was run: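 Inhibition of human recombinant TAK1-TAB1 kinase was measured with a Promega ADP-Glo luminescence assay in 384-well plates. Compounds in 5% DMSO were pre-incubated 10 min with 2 μl TAK1-TAB1 (7.5 ng/μl) in buffer of Tris pH 7.5, MgCl2, DTT and BSA. MBP substrate and ATP were then added for 1 hour at room temperature. ADP-Glo reagent and kinase detection substrate followed, luminescence was read on an Envision, and IC50 came from non-linear regression.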

[3] = amide bond, 14-membered ring
[4] = phosphate buffer, pH 7.4, aqueous buffer, kinetic from dmso stock, Solubility (μM)
[5] = 10 μM ATP, read-out: TAK1 Mean IC50 (nM) @ 10 μM ATP
[6] = 1 mM ATP, read-out: TAK1 Mean IC50 (nM) @ 1 mM ATP

Chain of human recombinant TAK1-TAB1 Kinase (TAK1 (1-303) and TAB1 (437-end)) (O43318 other isoform, or with tags, fused parts or gaps): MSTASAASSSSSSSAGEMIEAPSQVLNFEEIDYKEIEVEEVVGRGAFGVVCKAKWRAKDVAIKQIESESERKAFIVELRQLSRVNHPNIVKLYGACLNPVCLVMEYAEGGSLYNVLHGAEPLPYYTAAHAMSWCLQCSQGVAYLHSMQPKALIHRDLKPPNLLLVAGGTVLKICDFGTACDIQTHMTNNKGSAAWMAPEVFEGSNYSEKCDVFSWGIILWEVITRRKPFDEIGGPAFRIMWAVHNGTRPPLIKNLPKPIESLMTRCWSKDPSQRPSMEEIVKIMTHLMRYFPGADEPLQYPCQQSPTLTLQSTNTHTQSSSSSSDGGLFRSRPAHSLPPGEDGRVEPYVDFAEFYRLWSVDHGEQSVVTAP

Compound	solubility [1, 4]	IC50 [2, 5]	also measured
CC1CCCCNC(=O)c2cccc(c2)C(=O)Nc2nc3ccccc3n21 (centres unmarked) [Example 6, 11-methyl-1^1H-2,6-diaza-1(2,1)-benzo[d]imidazola-4(1,3)-benzenacycloundecaphane-3,5-dione]	2.5 µM (≈ 0.906 µg/mL)	5 nM	ring closure, yield after HPLC ([3]; from CC(CCCCN)n1c(NC(=O)c2cccc(C(=O)O)c2)nc2ccccc21, HATU/TEA, MeCN, 4.3 mM, 50.0 °C, 16.0 h, 2 steps): 39%
CN1CCN(Cc2ccc3c(c2)nc2n3CCCCCNC(=O)c3cc(ccc3F)C(=O)N2)CC1	–	–	ring closure, yield after HPLC ([3]; from CN1CCN(Cc2ccc3c(c2)nc(NC(=O)c2ccc(F)c(C(=O)O)c2)n3CCCCCN)CC1, TCFH/NMI, DMF/MeCN, 2.2 mM, 25.0 °C, 2.0 h): 16%
O=C1NCCOCCn2c(nc3ccccc32)NC(=O)c2cccc1c2 [Example 5, 1^1H-9-oxa-2,6-diaza-1(2,1)-benzo[d]imidazola-4(1,3)-benzenacycloundecaphane-3,5-dione]	–	11 nM	solubility [1]: 15.2 µM (≈ 5.33 µg/mL); IC50 [2, 6]: 247 nM; ring closure, yield after HPLC ([3]; from NCCOCCn1c(NC(=O)c2cccc(C(=O)O)c2)nc2ccccc21, HATU/TEA, MeCN, 14.0 mM, 50.0 °C, 16.0 h, 2 steps): 16%
CC(=O)c1cc(C(=O)N(C)C)c2c(c1)nc1n2[C@H](C)CCCCNC(=O)c2cccc(c2)C(=O)N1	–	–	ring closure, yield after HPLC ([3]; from CC(=O)c1cc(C(=O)N(C)C)c2c(c1)nc(NC(=O)c1cccc(C(=O)O)c1)n2[C@H](C)CCCCN, HATU/DIEA, THF, 0.49 mM, 25.0 °C, 120.0 h): 34%
Cc1ccc2c(c1)nc1n2CCCCCNC(=O)c2cccc(c2)C(=O)N1 [Example 4, 1^5-methyl-1^1H-2,6-diaza-1(2,1)-benzo[d]imidazola-4(1,3)-benzenacycloundecaphane-3,5-dione]	0.2 µM (≈ 0.0725 µg/mL)	7 nM	ring closure, yield after HPLC ([3]; from Cc1ccc2c(c1)nc(NC(=O)c1cccc(C(=O)O)c1)n2CCCCCN, HATU/TEA, MeCN, 50.0 °C, 16.0 h, 2 steps): 39%
C[C@@H]1CCCCNC(=O)c2cccc(c2)C(=O)Nc2nc3ccc(Cl)c(C(=O)N(C)C)c3n21	–	–	ring closure, yield after HPLC ([3]; from C[C@H](CCCCN)n1c(NC(=O)c2cccc(C(=O)O)c2)nc2ccc(Cl)c(C(=O)N(C)C)c21, HATU/DIEA, THF, 0.5 mM, 60.0 °C, 16.0 h): 5.3% and 5.7%
C[C@H]1CCCCNC(=O)c2cccc(c2)C(=O)Nc2nc3ccc(Cl)c(C(=O)N(C)C)c3n21	–	–	ring closure, yield after HPLC ([3]; from C[C@@H](CCCCN)n1c(NC(=O)c2cccc(C(=O)O)c2)nc2ccc(Cl)c(C(=O)N(C)C)c21, HATU/DIEA, THF, 0.5 mM, 60.0 °C, 16.0 h): 7.1% and 6.3%
Cc1noc(-c2cccc3nc4n(c23)[C@@H](C)CCCCNC(=O)c2cccc(c2)C(=O)N4)n1	–	–	ring closure, yield after HPLC ([3]; from Cc1noc(-c2cccc3nc(NC(=O)c4cccc(C(=O)O)c4)n([C@@H](C)CCCCN)c23)n1, TCFH/NMI, MeCN, 0.23 mM, 25.0 °C, 16.0 h): 92%
O=C1NCCCCCCn2c(nc3ccccc32)NC(=O)c2cccc1c2 [Example 1, 1^1H-2,6-diaza-1(2,1)-benzo[d]imidazola-4(1,3)-benzenacyclododecaphane-3,5-dione]	1.2 µM (≈ 0.435 µg/mL)	27 nM	–
CC1CCCCNC(=O)c2cccc(c2)C(=O)Nc2nc3cccc(-c4ccc[nH]c4=O)c3n21 (centres unmarked)	–	–	ring closure, yield after HPLC ([3]; from CC(CCCCN)n1c(NC(=O)c2cccc(C(=O)O)c2)nc2cccc(-c3ccc[nH]c3=O)c21, TCFH/NMI, DMF, 3.6 mM, 1.0 h): 21%
CN(C)C(=O)c1cccc2nc3n(c12)C1(CCCCNC(=O)c2cccc(c2)C(=O)N3)CC1	–	–	ring closure, yield after HPLC ([3]; from CN(C)C(=O)c1cccc2nc(NC(=O)c3cccc(C(=O)O)c3)n(C3(CCCCN)CC3)c12, TCFH/NMI, MeCN/DMF, 0.31 mM, 25.0 °C, 16.0 h): 18%
CC1CCCCNC(=O)c2cccc(c2)C(=O)Nc2nc3cccc(C(=O)N(C)C)c3n21 (centres unmarked)	–	–	ring closure, yield after HPLC ([3]; from CC(CCCCN)n1c(NC(=O)c2cccc(C(=O)O)c2)nc2cccc(C(=O)N(C)C)c21, TCFH/NMI, MeCN/DMF, 1.6 mM, 1.0 h): 12%

More lines, main results first:

solubility [1, 4]	IC50 [2, 5]	Compound	also measured
–	8 nM	CC1CCCCNC(=O)c2cccc(c2)C(=O)Nc2nc3cccc(-c4ccc[n+]([O-])c4)c3n21 (centres unmarked) [Example 33, (E)-3-(11-methyl-3,5-dioxo-1^2,1^3-dihydro-1^1H-2,6-diaza-1(2,1)-benzo[d]imidazola-4(1,3)-benzenacycloundecaphane-1^7-yl)pyridine 1-oxide]	ring closure, yield after HPLC ([3]; from CC(CCCCN)n1c(NC(=O)c2cccc(C(=O)O)c2)nc2cccc(-c3ccc[n+]([O-])c3)c21, HATU/DIEA, THF, 0.46 mM, 32.0 h, 2 steps): 7%
5.2 µM (≈ 2.31 µg/mL)	3 nM	C[C@@H]1CCCCNC(=O)c2cccc(c2)C(=O)Nc2nc3cccc(-c4cn(C)nn4)c3n21 [Example 66, (R,E)-11-methyl-1^7-(1-methyl-1H-1,2,3-triazol-4-yl)-1^2,1^3-dihydro-1^1H-2,6-diaza-1(2,1)-benzo[d]imidazola-4(1,3)-benzenacycloundecaphane-3,5-dione]	ring closure, yield after HPLC ([3]; from C[C@H](CCCCN)n1c(NC(=O)c2cccc(C(=O)O)c2)nc2cccc(-c3cn(C)nn3)c21, HATU/DIEA, THF, 0.48 mM, 25.0 °C, 78.0 h): 5%
61.3 µM (≈ 32.6 µg/mL)	8 nM	CN1CCN(Cc2cc(C(=O)N(C)C)c3c(c2)nc2n3CCCCCNC(=O)c3cccc(c3)C(=O)N2)CC1 [Example 27, (E)-N,N-dimethyl-1^5-((4-methylpiperazin-1-yl)methyl)-3,5-dioxo-1^2,1^3-dihydro-1^1H-2,6-diaza-1(2,1)-benzo[d]imidazola-4(1,3)-benzenacycloundecaphane-1^7-carboxamide]	ring closure, yield after HPLC ([3]; from CN1CCN(Cc2cc(C(=O)N(C)C)c3c(c2)nc(NC(=O)c2cccc(C(=O)O)c2)n3CCCCCN)CC1, HATU/DIEA, THF, then DMF, 0.46 mM, 40.0 °C, 18.0 h): 10%
85.1 µM (≈ 41.6 µg/mL)	7 nM	CN(C)[C@H]1CCN(C(=O)c2cccc3c2N2CCCCCNC(=O)c4cccc(c4)C(=O)/N=C/2N3)C1 [Example 21, (S,E)-1^7-(3-(dimethylamino)pyrrolidine-1-carbonyl)-1^2,1^3-dihydro-1^1H-2,6-diaza-1(2,1)-benzo[d]imidazola-4(1,3)-benzenacycloundecaphane-3,5-dione]	–
93 µM (≈ 45.7 µg/mL)	2 nM	C[C@@H]1CCCCNC(=O)c2cccc(c2)C(=O)Nc2nc3cc(C(C)(C)O)cc(C(=O)N(C)C)c3n21 [Example 69, (R,E)-1^5-(2-hydroxypropan-2-yl)-N,N,11-trimethyl-3,5-dioxo-1^2,1^3-dihydro-1^1H-2,6-diaza-1(2,1)-benzo[d]imidazola-4(1,3)-benzenacycloundecaphane-1^7-carboxamide]	–
83.1 µM (≈ 38.3 µg/mL)	2 nM	O=C1/N=C2\Nc3ccc(C(=O)N4CCNCC4)cc3N2CCCCCNC(=O)c2cccc1c2 [Example 100, (E)-1^6-(piperazine-1-carbonyl)-1^2,1^3-dihydro-1^1H-2,6-diaza-1(2,1)-benzo[d]imidazola-4(1,3)-benzenacycloundecaphane-3,5-dione]	–
28 µM (≈ 13.3 µg/mL)	11 nM	CN1CCN(C(=O)c2cccc3nc4n(c23)CCCCCNC(=O)c2cccc(c2)C(=O)N4)CC1 [Example 10, 1^7-(4-methylpiperazine-1-carbonyl)-1^1H-2,6-diaza-1(2,1)-benzo[d]imidazola-4(1,3)-benzenacycloundecaphane-3,5-dione]	–
93.6 µM (≈ 43.1 µg/mL)	4 nM	O=C1NCCCCCn2c(nc3cccc(C(=O)N4CCNCC4)c32)NC(=O)c2cccc1c2 [Example 17, 1^7-(piperazine-1-carbonyl)-1^1H-2,6-diaza-1(2,1)-benzo[d]imidazola-4(1,3)-benzenacycloundecaphane-3,5-dione]	–
26.2 µM (≈ 12.8 µg/mL)	4 nM	C[C@H]1CN(C)CCN1C(=O)c1cccc2c1N1CCCCCNC(=O)c3cccc(c3)C(=O)/N=C/1N2 [Example 24, (S,E)-1^7-(2,4-dimethylpiperazine-1-carbonyl)-1^2,1^3-dihydro-1^1H-2,6-diaza-1(2,1)-benzo[d]imidazola-4(1,3)-benzenacycloundecaphane-3,5-dione]	–
90 µM (≈ 44.2 µg/mL)	4 nM	C[C@H]1CCCCNC(=O)c2cccc(c2)C(=O)/N=C2\Nc3cc(C(C)(C)O)cc(C(=O)N(C)C)c3N21 [Example 123, (S,E)-1^5-(2-hydroxypropan-2-yl)-N,N,11-trimethyl-3,5-dioxo-1^2,1^3-dihydro-1^1H-2,6-diaza-1(2,1)-benzo[d]imidazola-4(1,3)-benzenacycloundecaphane-1^7-carboxamide]	IC50 [2, 6]: 11 nM
42 µM (≈ 19.4 µg/mL)	1 nM	CC(C)N(C)C(=O)c1cccc2c1N1/C(=N/C(=O)c3cccc(c3)C(=O)NCCCCC1C)N2 (centres unmarked) [Example 47, (E)-N-isopropyl-N,11-dimethyl-3,5-dioxo-1^2,1^3-dihydro-1^1H-2,6-diaza-1(2,1)-benzo[d]imidazola-4(1,3)-benzenacycloundecaphane-1^7-carboxamide]	–
15 µM (≈ 6.65 µg/mL)	5 nM	C[C@H]1CCCCNC(=O)c2cccc(c2)C(=O)Nc2nc3cccc(-c4ncn(C)n4)c3n21 [Example 84, (S)-11-methyl-1^7-(1-methyl-1H-1,2,4-triazol-3-yl)-1^1H-2,6-diaza-1(2,1)-benzo[d]imidazola-4(1,3)-benzenacycloundecaphane-3,5-dione]	–
